Test system: Human alphaherpesvirus 1
Assay: Antiviral activity against HSV1 assessed as plaque reduction at 30 to 200 […]
Assay type: functional
Design: scale not given: the % may be the effect or the level left

CC1(C)C[C@H](O)C[C@@]2(C)[C@H]1CC[C@H]1C[C@H]3C[C@]12CC[C@]3(C)O[C@@H]1O[C@H](CO)[C@@H](O)[C@H](O)[C@H]1O [STEMODINOSIDE B]
Activity: 77%

Source: ChEMBL document CHEMBL1158997, “New Stemodane Diterpenes from Stemodia maritima” (1992)
